This note sets out measurements from patent US6686360B2, “N-benzylpiperazine compounds” (priority 2001, dated 2004).

Experiment [1] concerns mouse model of neurodegeneration affecting both the cortical neurones and the subjacent white matter. The experiment in a line: Neuroprotection in the cortex and white matter: excitotoxic lesions by intracerebral ibotenate or S-bromo-willardiine. In kind it is in vivo. Particulars: for Cortical lesions: lesion, μm / White matter lesions: lesion, μm: 10 mg/kg i.p. immediately after excitotoxic assault at P5, sacrifice at P10, averages; for size of the lesions in the white matter and in the cortex (neuroprotective effect): newborn Swiss mouse, test compound intraperitoneally after excitotoxic assault. As for the experimental part: The model used is a mouse model of neurodegeneration affecting both the cortical neurones and the subjacent white matter (S. L. Tahraoui et al., Brain Pathol., 2001, 11, 56-71). This model is based on an intracerebral injection of S-bromo-willardiine, a glutamatergic agonist that acts on AMPA-kainate receptors, or of ibotenate, an agonist of NMDA-type receptors, in the newborn mouse.
All the injections are carried out in the morning between 10.00 and 13.00 hours. The animals are anaesthetised in advance and kept under a heating lamp during the handling period. Each experimental group comprises from 5 to 12 Swiss mice of both sexes, from at least 2 different litters. On the 5th day of life (P5), 10 μg of ibotenate or 15 μg of S-bromo-willardiine are injected intracerebrally using a 25G gauge needle mounted on a 50 μl syringe, fixed to a calibrated device that delivers a bolus of 1 μl at each depression. The needle is inserted 2 mm below the cutaneous level, in the fronto-parietal region of the right hemisphere (2 mm in front of the lambdoid suture and 2 mm outside the median line). Two boluses of 1 μl (1 μl into the periventricular white matter and 1 μl into the cortex) are administered. An interval of 30 seconds, during which the needle remains in position, separates each bolus in order to allow diffusion of the product. Immediately after this excitotoxic assault, the test compound (3, 10 or 30 mg/kg) or the carrier is administered intraperitoneally (injected volume=5 μl). The animals are sacrificed by decapitation 5 days later (P10) and their brains are immediately removed and fixed in formol before being enclosed in paraffin. Series of 15 μm coronal sections are prepared for all the brains and stained with cresyl violet, which makes it possible to determine in a precise and reproducible manner the anterio-posterior axis of the histological lesions in both the cortex and the white matter. The sizes of the histological lesions are determined by two independent observers having no knowledge of the experimental groups. The results are expressed in the form of averages.

For experiment [2], the system named is transitory focal cerebral ischaemia. Nature of the experiment: Anti-ischaemic activity: transitory focal cerebral ischaemia by intraluminal occlusion. The note with it: adult male Wistar rat; 1 mg/kg intravenously 3 minutes before occlusion; occlusion 1 hour, reperfusion 23 hours. It is filed as in vivo. The protocol:
The model used is a model of transitory focal cerebral ischaemia produced by intraluminal occlusion which mimics an embolic cerebral vascular accident in humans. The location of the infarction is cortical and subcortical (R. Bordet et al., J Cereb Blood Flow Metab. 20, 2000, 1190-1196 and 1999, 19, 1309-1345).
The model consists of a unilateral occlusion of the […] for 1 hour followed by reperfusion for 23 hours in an adult male Wistar rat. The aim of this experiment is to study the anti-ischaemic effect of the compounds of the invention.
The animals are anaesthetised for surgery with 300 mg/kg of chloral hydrate. For the duration of the surgery, their temperature is monitored and maintained at 37° C. using a temperature-controlled heating blanket.
The principal procedure is to stop the circulation of blood to the right middle cerebral artery (MCA) by intraluminal occlusion of the ostium. After 60 minutes, the occlusion is removed and the animals are replaced in their cage. After 24 hours the animals are sacrificed under anaesthetic. […]
The uncorrected infarcted zones and the total hemispheric zones are calculated separately for each section using an image analysis program. The corrected total volume of infarction is calculated in order to compensate for the effect of cerebral cedema. […]

The subject of experiment [3] is lesions induced by kainic acid in the CA1 and CA3 regions of the hippocampus. The experiment in a line: Neuroprotection in the CA1 and CA3 regions of the hippocampus (kainic acid lesions). In kind it is in vivo, rat. Particulars: single injection 20 mg/kg intraperitoneal 3 minutes before kainic acid 12 mg/kg i.p.; sacrifice 7 days later. The protocol:
The histopathological changes observed which are associated with administration of kainic acid differ from cerebral ischaemia caused by lesions that develop first in the CA1 to CA3 regions of the hippocampus (C. Montecot et al., Neuroscience 84, 791-800). The aim is to study the protective effect against lesions induced essentially in the CA3 region of the hippocampus while there is no reduction in the circulation of blood.
Kainic acid is administered intraperitoneally to a conscious rat in a dose of 12 mg/kg. The animal is then observed for a period of about 2 hours during which, after a latent period, epileptiform convulsions occur. At the end of 2 hours, the convulsions are stopped by administration of 10 mg/kg of diazepam. The animals are sacrificed 7 days later, their brains are isolated and 8 transverse sections 15 μm thick, spaced 150 μm apart, are prepared. These are analysed by contrast microscopy by two independent observers having no knowledge of the experimental groups. A rating of 0 to 3 is given according to the severity of the neuronal lesions. The ratings for each hemisphere are added together to obtain a lesion rating.
The product is administered in a dose of 20 mg/kg by the intraperitoneal route 3 minutes before administration of the kainic acid.

Experiment [4] deals with primary cultures of cardiomyocytes. Nature of the experiment: Anti-apoptotic effect in primary cultures of cardiomyocytes (H2O2-induced apoptosis). Particulars: newborn rat cardiomyocytes; H2O2 0.075 mmol/liter for 30 minutes, then 24 hours culture. It is filed as cell-based. As for the experimental part: An in vitro study into an anti-apoptotic effect in primary cultures of cardiomyocytes was carried out by inducing apoptosis by adding hydrogen peroxide (H2O2). The free radicals produced induce apoptosis. This is similar to what is observed in ischaemia-reperfusion (R. Von Harsdorf, Circulation 99, 2934-2941). The cardiomyocytes are isolated from newborn rat hearts and are spread out at a density of 35 000 cells/cm^2. The process of apoptosis is induced by the addition of H2O2 (0.075 mmol/liter) for 30 minutes. The cardiomyocytes are then replaced in the culture medium for 24 hours. The apoptotic cells are visualised by various techniques, for example by the fragmentation of the genomic DNA that occurs in the process of apoptosis. […] The characteristic fragments of 180 bp of genomic DNA are detected by electrophoresis on agarose gel. The migration of phosphatidylserine (PS) from the inside of the membrane of the […] to the outside (externalisation) is an early indicator of apoptosis. This can be visualised by fluorescent labelling using annexin-V-FITC (fluorescein isothiocyanate) and quantified by comparison with the total number of cells.

As for `COc1ccc(CN2CCNCC2)c(OC)c1OC` [TMZ, Trimetazidine, reference compound], in experiment [1], the “Cortical lesions: lesion, μm” value came out at 800 μm; the “White matter lesions: lesion, μm” value is on record as 320 μm; the “size of the lesions in the white matter and in the cortex (neuroprotective effect)” value is recorded as “very low neuroprotective effect”.
Consider `COc1ccc(CN2CCN(Cc3ccccc3)CC2)c(OCCCCCCC(=O)O)c1OC.Cl.Cl` [Example 2, 7-{6-[(4-Benzyl-1-piperazinyl)methyl]-2,3-dimethoxyphenoxy}-heptanoic acid dihydrochloride], for which the “size of the infarction of the cortex and striatum” value in experiment [2] is “reduced the size of the infarction of the cortex and striatum significantly”. Moreover, the “protection of neurones of the CA1 and CA3 regions of the hippocampus against kainic acid lesions” value in experiment [3] is “protects the neurones of the CA1 and CA3 regions of the hippocampus against lesions induced by kainic acid”. For the same compound, in experiment [4], the cell survival entry was “increase” and the “percentage of cells undergoing apoptosis” value is reported as “decrease”. Also, in experiment [1], the “Cortical lesions: lesion, μm” value is listed as 200 μm; the “White matter lesions: lesion, μm” value amounted to 146.7 μm; the “size of the lesions in the white matter and in the cortex (neuroprotective effect)” value was “reduced the size of the lesions in the white matter and in the cortex”.
